Key:
Assay in all cases: relative viability (nuclei count vs DMSO), 5 days (fraction); higher = more cells survive
R406 + Trametinib = compound: COc1cc(Nc2ncc(F)c(Nc3ccc4c(n3)NC(=O)C(C)(C)O4)n2)cc(OC)c1OC [R406] + CC(=O)Nc1cccc(-n2c(=O)n(C3CC3)c(=O)c3c(Nc4ccc(I)cc4F)n(C)c(=O)c(C)c32)c1 [Trametinib] (partner 0.02 µM)
Method in brief: (§1)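 Medians of duplicate plates are given as relative viability. That measure is the nuclei count in treated wells divided by the count in vehicle wells. Counts were taken on 4× images of lung cancer cell lines in 1536-well plates, 5 days after pin-tool dosing the day after seeding with one drug alone or a fixed anchor-drug dose plus five library-drug doses (not always all listed) in √10 steps.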

R406 + Crizotinib = compound: COc1cc(Nc2ncc(F)c(Nc3ccc4c(n3)NC(=O)C(C)(C)O4)n2)cc(OC)c1OC [R406] + C[C@@H](Oc1cc(-c2cnn(C3CCNCC3)c2)cnc1N)c1c(Cl)ccc(F)c1Cl [Crizotinib] (partner 1 µM)
Method in brief: as §1

Daporinad + Bortezomib = compound: O=C(/C=C/c1cccnc1)NCCCCC1CCN(C(=O)c2ccccc2)CC1 [Daporinad] + CC(C)C[C@H](NC(=O)[C@H](Cc1ccccc1)NC(=O)c1cnccn1)B(O)O [Bortezomib] (partner 0.002 µM)
Method in brief: as §1

Daporinad + Pemetrexed = compound: O=C(/C=C/c1cccnc1)NCCCCC1CCN(C(=O)c2ccccc2)CC1 [Daporinad] + Nc1nc2[nH]cc(CCc3ccc(C(=O)N[C@@H](CCC(=O)O)C(=O)O)cc3)c2c(=O)[nH]1 [Pemetrexed] (partner 0.2 µM)
Method in brief: as §1

UMC-11
relative viability (R406 + Trametinib; first compound 0.08 µM): 0.724
relative viability (R406 + Trametinib; first compound 0.253 µM): 0.959
relative viability (R406 + Trametinib; first compound 0.8 µM): 0.776
relative viability (R406 + Trametinib; first compound 2.53 µM): 0.874
relative viability (R406 + Trametinib; first compound 8 µM): 0.482
relative viability (R406 + Crizotinib; first compound 0.08 µM): 0.628
relative viability (R406 + Crizotinib; first compound 0.253 µM): 0.88
relative viability (R406 + Crizotinib; first compound 0.8 µM): 0.663
relative viability (R406 + Crizotinib; first compound 2.53 µM): 0.392
relative viability (R406 + Crizotinib; first compound 8 µM): 0.119
relative viability (Daporinad + Bortezomib; first compound 0.0005 µM): 0.668
relative viability (Daporinad + Bortezomib; first compound 0.001581 µM): 0.373
relative viability (Daporinad + Bortezomib; first compound 0.005 µM): 0.678
relative viability (Daporinad + Bortezomib; first compound 0.01581 µM): 0.827
relative viability (Daporinad + Pemetrexed; first compound 0.0005 µM): 0.746
relative viability (Daporinad + Pemetrexed; first compound 0.001581 µM): 0.83
relative viability (Daporinad + Pemetrexed; first compound 0.005 µM): 0.847
relative viability (Daporinad + Pemetrexed; first compound 0.01581 µM): 0.773
